This is an account of results in patent US10702519B2, “Use of methoxatin, derivative and/or salt thereof in Sjogren's syndrome and pharmaceutical composition” (NANJING SHUPENG LIFESCIENCE CO., LTD, priority 2016, dated 2020).

Entries after “also recorded” stand apart in the source; their conditions may differ. Marks after values point to notes of the source that are not given here.

In series [1] the test system is NOD mice. Put plainly: Saliva flow detection (pilocarpine-stimulated) in NOD mouse model of Sjogren's syndrome. Format: in vivo. The following applies: for salivary flow compared with the control group: P<0.05; for SFR (salivary flow): NOD mice, PQQ 1 mg/kg/day, active vitamin D 0.1 μg/kg/day; for salivary secretion function of NOD mice: summary statement. The source says: Model: NOD mouse model. NOD (Non-obese Diabetes) mice are a genetically deficient animal model of spontaneous diabetes. The female mice develop diabetes from 14 weeks and the incidence can reach as high as 80% by 30 weeks. NOD mice are also an animal model of Sjogren's syndrome. Mice develop inflammatory cell infiltration in the submandibular gland from 12 weeks of age, with increased expression of multiple inflammatory factors, and reduced salivary secretion and increased salivary salt concentration from 16 to 20 weeks of age.
Experimental grouping: 8-week-old female NOD mice were purchased from Shanghai SLE Experimental Animal Corporation and divided into control group, active vitamin d group, PQQ group and PQQ combined with active vitamin D group. There were four different treatment groups, 10 in each group. Saliva flow rates were measured at 12, 24, and 36 weeks of age. The amounts of PQQ and active vitamin D were 1 mg/kg body weight per day and 0.1 μg/kg body weight per day, respectively.
a. Intraperitoneal injection of 1.2% avertin (Chinese name: tribromoethanol), injection dose: 0.2 ml/10 g body weight, formula: (1) […] avertin dissolved in 0.25 ml t-amyl alcohol, shaking for 12 hours to completely dissolve; (2) Add 19.75 ml of 0.9% NaCl solution to obtain 1.2% avertin. Mice were anesthetized gently.
b. Subcutaneous pilocarpine injection in the neck, injection dose: 0.5 mg/kg=0.01 mg/20 g body weight, mother liquor concentration: 0.5 g/10 ml physiological saline=50 mg/ml=0.05×103 mg/ml, solution concentration: the mother liquor was diluted 1000 times, ie, 0.05 mg/ml, to stimulate saliva secretion.
c. Began to collect saliva after 5 minutes, that is, cotton ball with about 8 mg dry weight is made from sterile cotton ball, which is then put into a 1.5 mL EP tube to determine the dry weight. When measuring saliva secretion, the cotton ball is put into the mouse cheek and then taken into the EP tube after 10 min. The wet weight is determined on the electronic balance. Saliva secretion=wet weight of cotton balls−dry weight of cotton balls.

Series [2] concerns NF-κB. Put plainly: Western Blot detection of NF-κB activation in mouse submandibular gland tissue. The series is classed as in vivo. The following applies: for phosphorylation level of P65: compared with the control group. On the procedure:
Detection of NF-κB Activation in Submandibular Gland Tissue of Mouse Submandibular Gland by Western Blot
Take the same amount of total protein for each sample, add 4×SDS loading buffer according to the ratio of protein sample: 4×SDS at 3:1, mix well, boil at 95° C. for 5 min, and prepare 10% separation gel and 5% concentration gel. Perform SDS-PAGE electrophoresis, transfer the membrane, and block the PVDF membrane with 5% solution of skim milk in TBST for 1 hour at room temperature or overnight at 4° C. Dilute antibody with blocking solution, incubate at room temperature for 2 h or 4° C. overnight. Wash membrane, incubate with secondary antibody, and then wash the membrane again. After the equal volume of liquids A and B in the luminescence kit were mixed in a vessel, the mixture was uniformly added dropwise to the PVDF membrane, and the reaction was carried out in the dark for 3-5 minutes.
At the 36th week of treatment, the mouse submandibular glands were taken and Western Blot was used to detect the activation of NF-κB. […] P65 is the protein subunit of NF-κB, and its phosphorylation level directly reflects the activity of NF-κB. In addition, IκB binds to NF-κB to prevent its entry into the nucleus and exerts its activity. Once IκB is phosphorylated, it is degraded and releases NF-κB.
Background: Immunoblotting shows a protein as a band on a membrane.

Series [3] has as its system inflammatory factors in mouse submandibular glands tissue. Kind of series: Realtime quantitative PCR of inflammatory factors in mouse submandibular gland tissue. The series is classed as in vivo. The following applies: for expression of IL-1β / expression of IL-6 / expression of IL-10 / expression of TNF-α: submandibular glands tissue, 36 weeks, p<0.05. On the procedure:
Take the mouse submandibular gland tissue and extract RNA using Trizol. Superscript III was used for reverse transcription. Reaction was performed at 42° C. for 30 minutes. Oligo dT and Random Hexamer were used as primers for reverse transcription. Realtime quantitative PCR reaction system: 2×PCR premix 10 μl, Primers 0.8 μl, cDNA 1 μl, add balance of H2O to 20 μl; Reaction conditions: 95° C. 10 min, 95° C. 15 s, 60° C. 60 s, Read plate for 50 cycles; Melting curve Analysis: Temperature 55° C.-95° C., read once per minute. Set up 3 replicates for each sample.

Series [4] concerns MDA in submandibular gland tissue of mice. Put plainly: Detection of MDA content in submandibular gland tissue. The following applies: for content of MDA compared with the control group: 36 weeks, P<0.05; for MDA (Mean ± SD): submandibular gland tissue of mice at 36 weeks of age. Format: in vivo, mouse. The procedure:
Detection of MDA content: The submandibular gland tissue in the submandibular glands of mice were harvested and homogenized with icy physiological saline. The protein content was quantified by BCA. Take 1 ml homogenate, add 1 ml 30% trichloroacetic acid and 1 ml 0.67% TBA in turn, bath in boiling water for 30 min and cool to room temperature. After centrifugation at 3000 g for 10 min, the absorbance (A) of the supernatant was measured at 535 nm, and the MDA content was calculated from the standard curve. The result was expressed in nmol/mg tissue.

The subject of series [5] is SOD in submandibular gland tissue of mice. Put plainly: Detection of SOD content in submandibular gland tissue. Format: in vivo, mouse. The following applies: for content of SOD compared with the control group: 36 weeks; for SOD (Mean ± SD): submandibular gland tissue of mice at 36 weeks of age. On the procedure: Detection of SOD content: The submandibular gland tissue of mice were used to prepare tissue homogenates with icy physiological saline, and the protein content was quantified by BCA method. Refer to the kit operation instructions. Take 0.2 ml of the sample and mix it with 1.3 ml of test solution. Incubate at 37° C. for 40 min. Add 2 ml of chromogenic agent. Placed at room temperature for 10 min. Determine OD at 550 nm. The results are expressed in terms of U/mg protein, which states that the corresponding SOD amount per milligram of protein in a 1 ml reaction solution with a SOD inhibition rate of 50% is an SOD activity unit.

The test system of series [6] is mouse submandibular gland tissue. Kind of series: Mouse submandibular gland tissue slice detection (hematoxylin-eosin), lymphocytic infiltration. The series is classed as in vivo. The following applies: NOD mice, 36 weeks age, FIG. 3. The source says: 36 weeks age of mouse submandibular gland tissue was isolated, embedded in paraffin and sliced, stained with hematoxylin-eosin and photographed with an inverted microscope.

For series [7] the following is noted: chemical stability of o-quinone structure; cited from earlier work.
The conditions of series [8]: rat, cited from earlier work.
Where [9] appears, read: submandibular glands, 36th week.

As to `O=C(O)c1cc(C(=O)O)c2c(n1)C(=O)C(=O)c1cc(C(=O)O)[nH]c1-2` [PQQ, Pyrroloquinoline quinone], the “salivary flow compared with the control group” value in series [1] (36th week) was “significantly higher”. For the same molecule, the “SFR (salivary flow)” value in series [1] (12 W of age) is 2.55 (n = 10) μl/g/10 min. Moreover, the “SFR (salivary flow)” value in series [1] (24 W of age) is 3.21 (n = 6) μl/g/10 min. Further, the “SFR (salivary flow)” value in series [1] (36 W of age) is given as 3.75* (n = 5) μl/g/10 min. For the same molecule, the “salivary flow compared with the control group” value in series [1] (age of 24 weeks) is given as “no significant difference”. For the same molecule, the “salivary secretion function of NOD mice” value in series [1] is listed as “significantly improve”. Further, the “activity of NF-kappaB signaling pathway” value in series [2] (submandibular gland tissues of NOD mice, summary statement) is “significantly reduce”. For the same molecule, in series [2] (setting [9]), the “phosphorylation level of IκB” value is listed as “significantly attenuated” and the “phosphorylation level of P65” value was “significantly attenuated”. In series [3], the “expression of IL-1β” value was “significantly inhibited”, the “expression of IL-6” value is reported as “significantly reduce; also recorded: significantly inhibited”, the “expression of IL-10” value is “significantly inhibited” and the “expression of TNF-α” value was “significantly inhibited”. For the same molecule, in series [3] (summary and FIG. 2 legend), the “expression of Il-1” value is given as “significantly reduce” and the “expression of gamma interferon” value is “significantly reduce”. In addition, in series [4], the “content of MDA compared with the control group” value is listed as “significantly lower” and the “MDA (Mean ± SD)” value is 4.61 ± 0.76 nmol/mg protein. Also, the “oxidative stress levels in submandibular gland tissues of NOD mice” value in series [4] (summary statement) is reported as “significantly inhibit”. Besides, in series [5], the “content of SOD compared with the control group” value is “significantly higher” and the “SOD (Mean ± SD)” value is on record as 198.21 ± 21.33 NU/mg protein. Also, the “area of lymphocyte infiltration in submandibular gland” value in series [6] is “significantly inhibit; also recorded: significantly reduced”. The “redox cycles it can participate in” value in series [7] is listed as 20,000. For the same molecule, the adverse reactions result in series [8] (100 mg/kg body weight per day for 14 consecutive days) is on record as “no adverse reactions were found”. The LD50 in series [8] is recorded as 1000-2000 mg/kg body weight.
For `C=C1/C(=C\C=C2/CCC[C@]3(C)[C@@H]([C@H](C)CCCC(C)(C)O)CC[C@@H]23)C[C@@H](O)C[C@@H]1O` [active vitamin D, 1,25-Dihydroxyvitamin D3, reference compound], the “salivary flow compared with the control group” value in series [1] (36th week) is on record as “no statistical difference”. In series [1] (12 W of age), the “SFR (salivary flow)” value is 2.74 (n = 10) μl/g/10 min. The “SFR (salivary flow)” value in series [1] (24 W of age) was 2.82 (n = 5) μl/g/10 min. The “SFR (salivary flow)” value in series [1] (36 W of age) is on record as 3.22 (n = 4) μl/g/10 min. Also, the “salivary flow compared with the control group” value in series [1] (age of 24 weeks) is given as “no significant difference”. Moreover, the “salivary secretion function of NOD mice” value in series [1] was “no effect”. Further, in series [2] (setting [9]), the “phosphorylation level of P65” value is recorded as “no significant change”. Further, in series [3], the “expression of IL-1β” value is on record as “did not detect the effect”, the “expression of IL-6” value was “did not detect the effect”, the “expression of IL-10” value is recorded as “did not detect the effect” and the “expression of TNF-α” value is reported as “did not detect the effect”. Also, in series [4], the “content of MDA compared with the control group” value is given as “no significant difference” and the “MDA (Mean ± SD)” value is listed as 9.48 ± 2.12 nmol/mg protein. Besides, in series [5], the “content of SOD compared with the control group” value is “no significant difference” and the “SOD (Mean ± SD)” value is listed as 102.45 ± 14.22 NU/mg protein.
